Assay results as given in patent US20250136578A1 (Kolm Therapeutics Inc., priority 2023, published 2025).

Legend:
AR / CBP ternary complex = AR / CBP ternary complex (Homo sapiens, UniProt P10275+Q92793); experiment: Ternary complex formation assay (sandwich ELISA, AR capture, CBP antibody detection) in VCaP cell lysates; assay type: cell-based; conditions: treated 1.5 hours, rabbit CBP or p300 antibody detection, average, read-out: Average Ternary Complex
In short: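 VCaP cells in 5% charcoal-stripped FBS were cultured ≥3 days and then given bifunctional compound for 1.5 h. Lysates went onto AR-antibody-coated plates. Bound CBP (or p300) was detected with a rabbit antibody plus HRP anti-rabbit, using QuantaRed chemifluorescence (ex 570/em 585) read immediately, at 5 min and at 15 min.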

VCaP cells = experiment: VCaP growth inhibition assay (CTG); assay type: cell-based; conditions: Homo sapiens, 216 h, 30 pM R1881, 9 days
In short: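 VCaP cells in phenol red-free DMEM with 5% charcoal-stripped serum were stimulated with 30 pM R1881 (final) and treated with compound from 100 nM to 10 fM final (1:5 dilutions) for 9 days at 37 °C. Viability was read by CellTiter-Glo luminescence, and IC50 came from 4-parameter logistic fits.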

Chain of AR / CBP ternary complex (P10275 whole entry): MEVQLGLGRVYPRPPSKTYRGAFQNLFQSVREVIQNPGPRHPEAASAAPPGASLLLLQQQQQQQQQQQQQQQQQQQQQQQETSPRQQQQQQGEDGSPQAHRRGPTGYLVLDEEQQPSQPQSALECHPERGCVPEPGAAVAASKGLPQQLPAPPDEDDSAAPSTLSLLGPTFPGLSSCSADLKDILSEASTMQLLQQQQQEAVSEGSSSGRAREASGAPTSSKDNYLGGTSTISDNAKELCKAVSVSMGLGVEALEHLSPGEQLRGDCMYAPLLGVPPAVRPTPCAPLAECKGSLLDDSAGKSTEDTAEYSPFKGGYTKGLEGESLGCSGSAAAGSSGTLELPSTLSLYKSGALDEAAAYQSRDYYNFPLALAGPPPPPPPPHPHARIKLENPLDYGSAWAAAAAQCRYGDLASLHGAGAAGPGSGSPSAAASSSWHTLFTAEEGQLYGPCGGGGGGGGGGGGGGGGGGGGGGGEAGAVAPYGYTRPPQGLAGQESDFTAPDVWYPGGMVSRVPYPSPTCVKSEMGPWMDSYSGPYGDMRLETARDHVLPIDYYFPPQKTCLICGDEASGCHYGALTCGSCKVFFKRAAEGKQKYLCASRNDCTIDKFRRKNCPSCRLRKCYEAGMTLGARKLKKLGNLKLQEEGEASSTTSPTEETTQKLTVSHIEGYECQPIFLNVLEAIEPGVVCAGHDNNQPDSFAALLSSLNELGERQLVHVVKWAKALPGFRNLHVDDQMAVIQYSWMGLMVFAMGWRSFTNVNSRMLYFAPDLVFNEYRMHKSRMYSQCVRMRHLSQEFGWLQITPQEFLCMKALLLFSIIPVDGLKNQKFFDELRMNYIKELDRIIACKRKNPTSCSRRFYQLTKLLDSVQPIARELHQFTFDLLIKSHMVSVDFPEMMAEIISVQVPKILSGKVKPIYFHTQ
Chain of AR / CBP ternary complex (Q92793 2-2442): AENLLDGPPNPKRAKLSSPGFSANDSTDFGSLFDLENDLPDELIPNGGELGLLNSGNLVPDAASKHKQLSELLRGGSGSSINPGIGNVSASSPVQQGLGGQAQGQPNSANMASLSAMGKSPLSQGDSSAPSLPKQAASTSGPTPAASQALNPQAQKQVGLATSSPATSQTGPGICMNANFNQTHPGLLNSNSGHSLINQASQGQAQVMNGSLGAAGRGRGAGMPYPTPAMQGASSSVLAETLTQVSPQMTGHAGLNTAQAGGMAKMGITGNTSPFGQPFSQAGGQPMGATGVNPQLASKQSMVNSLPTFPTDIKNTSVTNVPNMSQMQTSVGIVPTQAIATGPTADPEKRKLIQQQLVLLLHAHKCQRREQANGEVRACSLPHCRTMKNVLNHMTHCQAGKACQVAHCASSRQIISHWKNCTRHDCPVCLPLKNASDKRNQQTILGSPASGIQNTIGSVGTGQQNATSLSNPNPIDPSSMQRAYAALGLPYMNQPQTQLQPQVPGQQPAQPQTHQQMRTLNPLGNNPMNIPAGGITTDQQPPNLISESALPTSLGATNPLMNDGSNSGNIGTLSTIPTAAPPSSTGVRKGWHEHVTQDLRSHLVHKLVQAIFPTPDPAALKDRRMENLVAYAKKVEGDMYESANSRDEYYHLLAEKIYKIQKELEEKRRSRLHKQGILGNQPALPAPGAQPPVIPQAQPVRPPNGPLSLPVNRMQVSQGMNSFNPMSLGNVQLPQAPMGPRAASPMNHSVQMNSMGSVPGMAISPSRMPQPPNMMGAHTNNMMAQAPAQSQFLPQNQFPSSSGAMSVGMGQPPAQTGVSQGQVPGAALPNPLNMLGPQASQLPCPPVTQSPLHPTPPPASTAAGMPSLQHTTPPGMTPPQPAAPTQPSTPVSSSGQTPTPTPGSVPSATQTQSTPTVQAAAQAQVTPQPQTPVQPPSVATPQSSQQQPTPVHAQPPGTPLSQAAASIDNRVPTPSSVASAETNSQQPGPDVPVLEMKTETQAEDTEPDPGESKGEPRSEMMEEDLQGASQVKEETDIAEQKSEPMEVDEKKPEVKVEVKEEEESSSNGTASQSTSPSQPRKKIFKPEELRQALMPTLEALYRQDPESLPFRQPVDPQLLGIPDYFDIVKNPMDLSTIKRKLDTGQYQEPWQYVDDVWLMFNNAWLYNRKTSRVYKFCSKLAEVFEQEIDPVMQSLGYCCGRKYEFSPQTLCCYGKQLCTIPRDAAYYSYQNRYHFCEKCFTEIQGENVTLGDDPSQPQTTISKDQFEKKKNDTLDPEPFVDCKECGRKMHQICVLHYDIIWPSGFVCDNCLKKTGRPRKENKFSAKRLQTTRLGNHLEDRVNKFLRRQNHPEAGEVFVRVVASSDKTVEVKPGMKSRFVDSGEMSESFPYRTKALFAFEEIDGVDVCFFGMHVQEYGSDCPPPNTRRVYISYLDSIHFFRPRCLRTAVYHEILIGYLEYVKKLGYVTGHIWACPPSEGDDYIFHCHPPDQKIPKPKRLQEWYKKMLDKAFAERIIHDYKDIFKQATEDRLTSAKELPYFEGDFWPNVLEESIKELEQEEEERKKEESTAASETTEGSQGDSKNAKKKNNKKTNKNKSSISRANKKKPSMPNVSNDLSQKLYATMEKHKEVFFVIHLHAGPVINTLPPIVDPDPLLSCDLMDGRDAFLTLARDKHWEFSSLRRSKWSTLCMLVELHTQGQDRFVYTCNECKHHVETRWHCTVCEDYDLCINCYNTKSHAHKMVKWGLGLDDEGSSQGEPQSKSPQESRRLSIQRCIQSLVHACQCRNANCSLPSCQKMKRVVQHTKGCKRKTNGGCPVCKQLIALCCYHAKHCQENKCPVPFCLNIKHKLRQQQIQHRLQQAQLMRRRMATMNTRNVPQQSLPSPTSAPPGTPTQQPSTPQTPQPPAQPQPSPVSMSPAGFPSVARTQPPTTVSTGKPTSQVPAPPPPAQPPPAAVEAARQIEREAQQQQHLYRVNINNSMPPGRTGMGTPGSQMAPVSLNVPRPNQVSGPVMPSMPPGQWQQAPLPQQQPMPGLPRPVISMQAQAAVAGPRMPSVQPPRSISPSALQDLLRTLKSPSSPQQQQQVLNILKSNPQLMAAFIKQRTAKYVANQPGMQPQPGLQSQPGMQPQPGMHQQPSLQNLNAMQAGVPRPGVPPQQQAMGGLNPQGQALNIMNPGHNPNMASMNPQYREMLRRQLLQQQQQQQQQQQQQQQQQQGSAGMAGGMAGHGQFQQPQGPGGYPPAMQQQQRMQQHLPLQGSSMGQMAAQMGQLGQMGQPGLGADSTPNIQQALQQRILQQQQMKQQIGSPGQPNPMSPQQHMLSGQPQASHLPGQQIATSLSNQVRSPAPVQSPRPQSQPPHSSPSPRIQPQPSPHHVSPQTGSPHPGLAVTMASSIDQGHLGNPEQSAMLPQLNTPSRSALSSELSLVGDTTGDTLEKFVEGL

EC50 (AR / CBP ternary complex)	IC50 (VCaP cells)	Compound
< 1 nM	0.1 to 1 nM	CC(=O)N1CCc2c(c(N3CCCc4cc(-c5cnn(C)c5)c(C)cc43)nn2C2CCN(CC3CCN(c4ccc(C(=O)N[C@H]5CC[C@H](Oc6ccc(C#N)c(Cl)c6)CC5)nn4)CC3(C)C)CC2)C1 (stereo partly shown) [Compound 282, 6-[4-[[4-[5-acetyl-3-[7-methyl-6-(1-methylpyrazol-4-yl)-3,4-dihydro-2H-quinolin-1-yl]-6,7-dihydro-4H-pyrazolo[4,3-c]pyridin-1-yl]-1-piperidyl]methyl]-3,3-dimethyl-1-piperidyl]-N-[4-(3-chloro-4-cyano-phenoxy)cyclohexyl]pyridazine-3-carboxamide]
< 1 nM	≤ 0.1 nM	CC(=O)N1CCc2c(c(N3CCCc4cc(C#N)c(C(F)F)cc43)nn2C2CCN(CC3CCN(c4ccc(C(=O)N[C@H]5CC[C@H](Oc6ccc(C#N)c(Cl)c6)CC5)nn4)CC3(C)C)CC2)C1 (stereo partly shown) [Compound 283, 6-[4-[[4-[5-acetyl-3-[6-cyano-7-(difluoromethyl)-3,4-dihydro-2H-quinolin-1-yl]-6,7-dihydro-4H-pyrazolo[4,3-c]pyridin-1-yl]-1-piperidyl]methyl]-3,3-dimethyl-1-piperidyl]-N-[4-(3-chloro-4-cyano-phenoxy)cyclohexyl]pyridazine-3-carboxamide]
< 1 nM	≤ 0.1 nM	CC(=O)N1CCc2c(c(N3CCCc4cc(C#N)c(C(F)F)cc43)nn2C2CCN(C[C@H]3[C@H](C)CN(c4ccc(C(=O)N[C@H]5CC[C@H](Oc6ccc(C#N)c(Cl)c6)CC5)nn4)C[C@@H]3C)CC2)C1 [Compound 286, 6-[4-[[4-[5-acetyl-3-[6-cyano-7-(difluoromethyl)-3,4-dihydro-2H-quinolin-1-yl]-6,7-dihydro-4H-pyrazolo[4,3-c]pyridin-1-yl]-1-piperidyl]methyl]-3,5-dimethyl-1-piperidyl]-N-[4-(3-chloro-4-cyano-phenoxy)cyclohexyl]pyridazine-3-carboxamide]
< 1 nM	≤ 0.1 nM	CC(=O)N1CCc2c(c(N3CCCc4cc(-c5cnn(C)c5)c(C(F)F)cc43)nn2C2CCN(C[C@H]3[C@H](C)CN(c4ccc(C(=O)N[C@H]5CC[C@H](Oc6ccc(C#N)c(Cl)c6C)CC5)nn4)C[C@@H]3C)CC2)C1 [Compound 287, 6-[4-[[4-[5-acetyl-3-[7-(difluoromethyl)-6-(1-methylpyrazol-4-yl)-3,4-dihydro-2H-quinolin-1-yl]-6,7-dihydro-4H-pyrazolo[4,3-c]pyridin-1-yl]-1-piperidyl]methyl]-3,5-dimethyl-1-piperidyl]-N-[4-(3-chloro-4-cyano-2-methyl-phenoxy)cyclohexyl]pyridazine-3-carboxamide]
< 1 nM	≤ 0.1 nM	CC(=O)N1CCc2c(c(N3CCCc4cc(-c5cnn(C)c5)c(C(F)F)cc43)nn2C2CCN(C[C@H]3[C@H](C)CN(c4ccc(C(=O)N[C@H]5CC[C@H](Oc6ccc(C#N)c(C)c6C)CC5)nn4)C[C@@H]3C)CC2)C1 [Compound 288]
< 1 nM	≤ 0.1 nM	CC(=O)N1CCc2c(c(N3CCCc4cc(-c5cnn(C)c5)c(C(F)F)cc43)nn2C2CCN(C[C@H]3[C@H](C)CN(c4ccc(C(=O)N[C@H]5CC[C@H](Oc6ccc(C#N)c(C)c6)CC5)nn4)C[C@@H]3C)CC2)C1 [Compound 289, 6-[4-[[4-[5-acetyl-3-[7-(difluoromethyl)-6-(1-methylpyrazol-4-yl)-3,4-dihydro-2H-quinolin-1-yl]-6,7-dihydro-4H-pyrazolo[4,3-c]pyridin-1-yl]-1-piperidyl]methyl]-3,5-dimethyl-1-piperidyl]-N-[4-(4-cyano-3-methyl-phenoxy)cyclohexyl]pyridazine-3-carboxamide]

Continued, compound first:

Compound	EC50 (AR / CBP ternary complex)	IC50 (VCaP cells)
COC(=O)N1c2ccc3c(nc(Cc4ccccc4)n3[C@@H]3CCC[C@H](OCC4CCN(c5ccc(C(=O)N[C@H]6CC[C@H](Oc7ccc(C#N)c(Cl)c7)CC6)nn5)CC4)C3)c2CC[C@@H]1C [Compound 257]	1 to 10 nM	0.1 to 1 nM
CC(=O)N1CCc2c(c(N3CCCc4cc(-c5cnn(C)c5)c(C(F)F)cc43)nn2C2CCN([C@H]3CCCN(c4ccc(C(=O)N[C@H]5CC[C@H](Oc6ccc(C#N)c(Cl)c6)CC5)nn4)C3)CC2)C1 [Compound 258, 6-[(3S)-3-[4-[5-acetyl-3-[7-(difluoromethyl)-6-(1-methylpyrazol-4-yl)-3,4-dihydro-2H-quinolin-1-yl]-6,7-dihydro-4H-pyrazolo[4,3-c]pyridin-1-yl]-1-piperidyl]-1-piperidyl]-N-[4-(3-chloro-4-cyano-phenoxy)cyclohexyl]pyridazine-3-carboxamide]	1 to 10 nM	1 to 100 nM
CC(=O)N1CCc2c(c(N3CCCc4cc(-c5cnn(C)c5)c(C(F)F)cc43)nn2C2CCN([C@@H]3CCCN(c4ccc(C(=O)N[C@H]5CC[C@H](Oc6ccc(C#N)c(Cl)c6)CC5)nn4)C3)CC2)C1 [Compound 259, 6-[(3R)-3-[4-[5-acetyl-3-[7-(difluoromethyl)-6-(1-methylpyrazol-4-yl)-3,4-dihydro-2H-quinolin-1-yl]-6,7-dihydro-4H-pyrazolo[4,3-c]pyridin-1-yl]-1-piperidyl]-1-piperidyl]-N-[4-(3-chloro-4-cyano-phenoxy)cyclohexyl]pyridazine-3-carboxamide]	1 to 10 nM	1 to 100 nM
CC(=O)N1CCc2c(c(N3CCCc4cc(-c5cscn5)c(C(F)F)cc43)nn2C2CCN([C@@H]3CCCN(c4ccc(C(=O)N[C@H]5CC[C@H](Oc6ccc(C#N)c(Cl)c6)CC5)nn4)C3)CC2)C1 [Compound 261, 6-[(3R)-3-[4-[5-acetyl-3-[7-(difluoromethyl)-6-thiazol-4-yl-3,4-dihydro-2H-quinolin-1-yl]-6,7-dihydro-4H-pyrazolo[4,3-c]pyridin-1-yl]-1-piperidyl]-1-piperidyl]-N-[4-(3-chloro-4-cyano-phenoxy)cyclohexyl]pyridazine-3-carboxamide]	1 to 10 nM	1 to 100 nM
CC(=O)N1CCc2c(c(N3CCCc4cc(-c5cnn(C)c5)c(C(F)F)cc43)nn2[C@H]2CC[C@]3(CCN(C4CN(c5ccc(C(=O)N[C@H]6CC[C@H](Oc7ccc(C#N)c(Cl)c7)CC6)nn5)C4)C3)CC2)C1 [Compound 262, 6-[3-[8-[5-acetyl-3-[7-(difluoromethyl)-6-(1-methylpyrazol-4-yl)-3,4-dihydro-2H-quinolin-1-yl]-6,7-dihydro-4H-pyrazolo[4,3-c]pyridin-1-yl]-2-azaspiro[4.5]decan-2-yl]azetidin-1-yl]-N-[4-(3-chloro-4-cyano-phenoxy)cyclohexyl]pyridazine-3-carboxamide]	< 1 nM	0.1 to 1 nM
CC(=O)N1CCc2c(c(N3CCCc4cc(-c5cnn(C)c5)c(C(F)F)cc43)nn2[C@H]2CC[C@@]3(CCN(C4CN(c5ccc(C(=O)N[C@H]6CC[C@H](Oc7ccc(C#N)c(Cl)c7)CC6)nn5)C4)C3)CC2)C1 [Compound 263, 6-[3-[8-[5-acetyl-3-[7-(difluoromethyl)-6-(1-methylpyrazol-4-yl)-3,4-dihydro-2H-quinolin-1-yl]-6,7-dihydro-4H-pyrazolo[4,3-c]pyridin-1-yl]-2-azaspiro[4.5]decan-2-yl]azetidin-1-yl]-N-[4-(3-chloro-4-cyano-phenoxy)cyclohexyl]pyridazine-3-carboxamide]	< 1 nM	≤ 0.1 nM
CC(=O)N1CCc2c(c(N3CCCc4cc(-c5cnn(C)c5)c(C(F)F)cc43)nn2[C@H]2CC[C@@]3(CCCN(c4ccc(C(=O)N[C@H]5CC[C@H](Oc6ccc(C#N)c(Cl)c6)CC5)nn4)C3)CC2)C1 [Compound 267, 6-[9-[5-acetyl-3-[7-(difluoromethyl)-6-(1-methylpyrazol-4-yl)-3,4-dihydro-2H-quinolin-1-yl]-6,7-dihydro-4H-pyrazolo[4,3-c]pyridin-1-yl]-2-azaspiro[5.5]undecan-2-yl]-N-[4-(3-chloro-4-cyano-phenoxy)cyclohexyl]pyridazine-3-carboxamide]	< 1 nM	1 to 100 nM
CC(=O)N1CCc2c(c(N3CCCc4cc(-c5cnn(C)c5)c(C(F)F)cc43)nn2[C@H]2CC[C@]3(CCCN(C4CN(c5ccc(C(=O)N[C@H]6CC[C@H](Oc7ccc(C#N)c(Cl)c7)CC6)nn5)C4)C3)CC2)C1 [Compound 268, 6-[3-[9-[5-acetyl-3-[7-(difluoromethyl)-6-(1-methylpyrazol-4-yl)-3,4-dihydro-2H-quinolin-1-yl]-6,7-dihydro-4Hpyrazolo[4,3-c]pyridin-1-yl]-2-azaspiro[5.5]undecan-2-yl]azetidin-1-yl]-N-[4-(3-chloro-4-cyanophenoxy)cyclohexyl]pyridazine-3-carboxamide]	< 1 nM	0.1 to 1 nM
COC(=O)N1c2ccc3c(nc(Cc4ccccc4)n3[C@@H]3CCC[C@H](OCCN4CCN(c5ccc(C(=O)N[C@H]6CC[C@H](Oc7ccc(C#N)c(Cl)c7)CC6)nn5)CC4)C3)c2CC[C@@H]1C [Compound 270, methyl (7S)-2-benzyl-3-[3-[2-[4-[6-[[4-(3-chloro-4-cyano-phenoxy)cyclohexyl]carbamoyl]pyridazin-3-yl]piperazin-1-yl]ethoxy]cyclohexyl]-7-methyl-8,9-dihydro-7H-imidazo[4,5-f]quinoline-6-carboxylate]	1 to 10 nM	1 to 100 nM
CC(=O)N1CCc2c(c(-c3cccc4cc(-c5cnn(C)c5)ncc34)nn2C2CCN(CC3CCN(c4ccc(C(=O)N[C@H]5CC[C@H](Oc6ccc(C#N)c(Cl)c6)CC5)nn4)CC3(C)C)CC2)C1 (stereo partly shown) [Compound 280]	< 1 nM	≤ 0.1 nM
CC(=O)N1CCc2c(c(N3CCCc4cc(-c5cnn(C)c5)c(C)cc43)nn2C2CCN(C[C@H]3[C@H](C)CN(c4ccc(C(=O)N[C@H]5CC[C@H](Oc6ccc(C#N)c(Cl)c6)CC5)nn4)C[C@@H]3C)CC2)C1 [Compound 281]	< 1 nM	≤ 0.1 nM
